Experimental data taken from the NIST ThermoML archive (doi:10.1016/j.jct.2015.06.021).
Values joined by “and” are separate entries in the source; they are usually repeats but may differ in a detail not shown here. Equal values may be shown once. ± gives the expanded uncertainty stated by the source.

Assays:
[1] = Molar enthalpy of transition or fusion; conditions: Crystal; DSC
[2] = Crystal; for vapor or sublimation pressure: Calculated from knudsen effusion weight loss; for Normal melting temperature: DTA

## c1ccc2cc3ccccc3cc2c1 [anthracene]
[1]
  Molar enthalpy of transition or fusion: 6.55 ± 0.932 kcal/mol
[2]; 301.3 K
  vapor or sublimation pressure: 1.3e-06 ± 1e-07 kPa
[2]; 303.3 K
  vapor or sublimation pressure: 1.8e-06 ± 2e-07 kPa
[2]; 303.6 K
  vapor or sublimation pressure: 1.7e-06 ± 2e-07 kPa
[2]; 305.7 K
  vapor or sublimation pressure: 2.5e-06 ± 3e-07 kPa
[2]; 305.9 K
  vapor or sublimation pressure: 2.2e-06 ± 2e-07 kPa
[2]; 307.8 K
  vapor or sublimation pressure: 3.2e-06 ± 6e-07 kPa
[2]; 308.1 K
  vapor or sublimation pressure: 3.9e-06 ± 6e-07 kPa
[2]; 308.2 K
  vapor or sublimation pressure: 3.3e-06 ± 3e-07 kPa
[2]; 310 K
  vapor or sublimation pressure: 4.3e-06 ± 4e-07 kPa
[2]; 310.2 K
  vapor or sublimation pressure: 4.2e-06 ± 5e-07 kPa
[2]; 310.5 K
  vapor or sublimation pressure: 4.5e-06 ± 5e-07 kPa
[2]; 313.3 K
  vapor or sublimation pressure: 6.5e-06 ± 6e-07 kPa
[2]; 314.5 K
  vapor or sublimation pressure: 7.3e-06 ± 7e-07 kPa
[2]; 314.7 K
  vapor or sublimation pressure: 7.4e-06 ± 7e-07 kPa
[2]; 314.9 K
  vapor or sublimation pressure: 7.6e-06 ± 8e-07 kPa
[2]; 317.6 K
  vapor or sublimation pressure: 1.05e-05 ± 1e-06 kPa
[2]; 318.8 K
  vapor or sublimation pressure: 1.1e-05 ± 1.1e-06 kPa
[2]; 319.2 K
  vapor or sublimation pressure: 1.28e-05 ± 1.5e-06 kPa
[2]; 322.3 K
  vapor or sublimation pressure: 1.81e-05 ± 1.8e-06 kPa
[2]; 323.1 K
  vapor or sublimation pressure: 2.05e-05 ± 2e-06 kPa and 1.74e-05 ± 1.7e-06 kPa
[2]; 323.2 K
  vapor or sublimation pressure: 2.12e-05 ± 2.1e-06 kPa
[2]; 323.8 K
  vapor or sublimation pressure: 2.09e-05 ± 2e-06 kPa
[2]; 326.6 K
  vapor or sublimation pressure: 2.96e-05 ± 2.9e-06 kPa
[2]; 328 K
  vapor or sublimation pressure: 3.16e-05 ± 3.1e-06 kPa
[2]; 328.6 K
  vapor or sublimation pressure: 3.48e-05 ± 3.5e-06 kPa
[2]; 331.5 K
  vapor or sublimation pressure: 4.92e-05 ± 4.9e-06 kPa
[2]; 333.1 K
  vapor or sublimation pressure: 6.27e-05 ± 6.2e-06 kPa
[2]; 333.3 K
  vapor or sublimation pressure: 6.36e-05 ± 6.2e-06 kPa
[2]; 333.7 K
  vapor or sublimation pressure: 6.31e-05 ± 6.1e-06 kPa
[2]; 336.3 K
  vapor or sublimation pressure: 8.09e-05 ± 7.9e-06 kPa
[2]; 338.2 K
  vapor or sublimation pressure: 8.49e-05 ± 8.3e-06 kPa
[2]; 338.8 K
  vapor or sublimation pressure: 0.0001028 ± 1.2e-05 kPa and 9.99e-05 ± 1.1e-05 kPa
[2]; 343.1 K
  vapor or sublimation pressure: 0.000173 ± 1.8e-05 kPa and 0.0001738 ± 1.8e-05 kPa
[2]; 343.4 K
  vapor or sublimation pressure: 0.0001646 ± 1.7e-05 kPa and 0.0001599 ± 1.8e-05 kPa
[2]; 348.1 K
  vapor or sublimation pressure: 0.0002492 ± 2.5e-05 kPa
[2]; 348.2 K
  vapor or sublimation pressure: 0.0002587 ± 2.6e-05 kPa
[2]; 353.2 K
  vapor or sublimation pressure: 0.0004347 ± 4.3e-05 kPa
[2]; 363.2 K
  vapor or sublimation pressure: 0.001018 ± 0.00012 kPa
[2]; 373.2 K
  vapor or sublimation pressure: 0.002158 ± 0.00026 kPa
[2]
  Normal melting temperature: 217 ± 2 °C

## c1ccc2c(c1)ccc1ccccc12 [phenanthrene]
[1]
  Molar enthalpy of transition or fusion: 3.62 ± 0.526 kcal/mol
[2]; 296.2 K
  vapor or sublimation pressure: 1.61e-05 ± 1.6e-06 kPa
[2]; 297.2 K
  vapor or sublimation pressure: 1.86e-05 ± 1.9e-06 kPa
[2]; 298.2 K
  vapor or sublimation pressure: 2.1e-05 ± 2.1e-06 kPa
[2]; 299.2 K
  vapor or sublimation pressure: 2.43e-05 ± 2.4e-06 kPa
[2]; 300.2 K
  vapor or sublimation pressure: 2.7e-05 ± 2.7e-06 kPa
[2]; 301.2 K
  vapor or sublimation pressure: 3e-05 ± 3e-06 kPa
[2]; 302.2 K
  vapor or sublimation pressure: 3.43e-05 ± 3.4e-06 kPa
[2]; 303.2 K
  vapor or sublimation pressure: 3.83e-05 ± 3.8e-06 kPa
[2]; 304.2 K
  vapor or sublimation pressure: 4.3e-05 ± 4.3e-06 kPa
[2]; 305.2 K
  vapor or sublimation pressure: 4.88e-05 ± 4.9e-06 kPa
[2]; 306.2 K
  vapor or sublimation pressure: 5.4e-05 ± 5.4e-06 kPa
[2]; 307.2 K
  vapor or sublimation pressure: 6.08e-05 ± 6e-06 kPa
[2]; 308.2 K
  vapor or sublimation pressure: 6.73e-05 ± 6.7e-06 kPa
[2]; 309.2 K
  vapor or sublimation pressure: 7.49e-05 ± 7.4e-06 kPa
[2]; 310.2 K
  vapor or sublimation pressure: 8.41e-05 ± 8.3e-06 kPa
[2]; 311.2 K
  vapor or sublimation pressure: 9.35e-05 ± 9.3e-06 kPa
[2]; 312.2 K
  vapor or sublimation pressure: 0.0001041 ± 1e-05 kPa
[2]; 313.2 K
  vapor or sublimation pressure: 0.0001151 ± 1.1e-05 kPa
[2]
  Normal melting temperature: 99 ± 2 °C
